Data on seven molecules can be found in patent publication US20070003608A1, “Compounds, compositions and methods for the treatment of viral infections and other medical disorders” (priority 2005, published 2007).

Read-outs that look alike come from different tables or passages of the source.

By EC50 is commonly meant the concentration that produces a half-maximal response. As usually defined, the CC50 is the concentration at which the toxic effect on the cells reaches its halfway point.

The test system of one data set is Variola Minor Garcia. As to conditions: cited from earlier work.
The next data set concerns Cowpox. The note with it: cited from earlier work.
For data set [1], the system named is Human Cytomegalovirus (HCMV). Nature of the data set: HCMV antiviral assay, HCMV DNA quantified by DNA hybridization in MRC-5 cells. The format is cell-based.
A short description of data set [2]: Cytotoxicity in vitro in MRC-5 human lung fibroblast cells, visual estimate of 50% reduction in cell number. The note with it: human, MRC-5 human lung fibroblast cells.
The subject of another data set is Variola Major, Yamada. As to conditions: cited from earlier work.
Data set [3] in a line: Quantitative whole body autoradiograph after oral [2-14C] HDP-cidofovir. The note with it: mouse, 4 hours after a 5 mg/kg oral dose of [2-14C] HDP-cidofovir.
Another data set deals with Vero cells. As to conditions: 50% cytotoxic concentration in Vero cells; cited from earlier work.
The test system of the next data set is Vaccinia. The note with it: Vero cells, 1000 pfu/well, neutral red; average of 3 determinations; cited from earlier work.
In data set [4] the test system is Variola Major, Bangladesh. As to conditions: cited from earlier work.
The subject of data set [5] is human lung fibroblast cells (MRC-5). As to conditions: Table 7; cited from earlier work.
Data set [6] shares this test system. Nature of the data set: Cytotoxicity in vitro in MRC-5 human lung fibroblast cells, visual estimate of 50% reduction in cell number. The note with it: MRC-5 cells, 5 days; Table 2.
A further data set deals with HSV-1. As to conditions: Human HSV replication in MRC-5 human lung fibroblasts, DNA reduction, about 24 h; average of two experiments (HDP-CDV single determination in duplicate); cited from earlier work.
Data set [7] has as its system HIV-1. Nature of the data set: HIV-1 plaque reduction assay in HT4-6C cells. The format is cell-based. As to conditions: HIV-1 plaque reduction EC50 compared with adefovir. On the technique in general: In a plaque reduction assay, fewer plaques than in the control indicate reduced infectivity or spread.
The subject of data set [8] is HIV-1. The note with it: cited from earlier work.
A further data set deals with HT4-6C Cells. As to conditions: Table 6; cited from earlier work.
Setting [9] is: Human CMV replication in MRC-5 human lung fibroblasts, DNA reduction, average of 3 to 6 determinations (ADV single replication in duplicate), read-out: EC50.

Take `CCCCCCCCCCCCCCCCOCCCOP(=O)(O)COC(CO)Cn1ccc(N)nc1=O` (stereo not drawn) [HDP-CDV, hexadecyloxypropyl-cidofovir]: the half-maximal effective concentration (EC50) is 0.6 nM with Variola Minor Garcia; less than 30 nM with Cowpox; 0.002 nM in data set [1] (Human betaherpesvirus 5, MRC5, Human CMV replication in MRC-5 human lung fibroblasts, DNA reduction, average of 3 to 6 determinations (ADV single replication in duplicate), read-out: EC50); 1.5 nM with Variola Major, Yamada; less than 30 nM in the data set with Vaccinia; 1.5 nM in data set [4]. In addition, the CC50 at 5 days in data set [2] was 10 µM. Further, the “tissue distribution of drug” value in data set [3] was “distributed primarily in the GI tract as well as organs including the lung, heart, liver, and kidney”. Also, in the data set on Vero cells, the CC50 was more than 100 nM.
On to `CCCCCCCCCCCCCCCCCCOCCOP1(=O)COC(Cn2ccc(N)nc2=O)CO1` (stereo not drawn) [1-O-octadecylpropanediol-2-cCDV, 1-O-octadecylethanediol-2-cyclic cidofovir], for which the EC50 in [1] (setting [9]) came out at 55000 nM.
On to `CCCCCCCCCCCCCCCCCCOCCOP(=O)(O)COC(CO)Cn1ccc(N)nc1=O` (stereo not drawn) [1-O-octadecylpropanediol-2-CDV, 1-O-octadecylethanediol-2-cidofovir], for which the EC50 in [1] (setting [9]) is 40 nM.
Take `CCCCCCCCCCCCCCCCCCOCCCOP(=O)(O)COC(CO)Cn1ccc(N)nc1=O` (stereo not drawn) [1-O-octadecylpropanediol-3-CDV, 1-O-octadecylpropanediol-3-cidofovir]: the concentration for a half-maximal effect (EC50) in data set [1] (setting [9]) is 0.03 nM; in the data set on HSV-1 it was 3 nM. The CC50 in data set [5] and in [6] was 32 µM each time.
Regarding `CCCCCCCCCCCCCCCCOCCCOP(=O)(O)COCCn1cnc2c(N)ncnc21` [HDP-ADV, 1-O-hexadecylpropanediol-3-adefovir], the “logs more active than adefovir itself” value with HIV-1 [7] is “more than 5 logs”.
On to `Nc1ncnc2c1ncn2CCOCP(=O)(O)O` [Adefovir, adefovir, reference compound], for which the EC50 in data set [1] (Human betaherpesvirus 5, MRC5) was 210 nM; in [1] (Human betaherpesvirus 5, MRC5, 120 h, MRC-5 cells, 5 days, DNA hybridization, preliminary experiments, second TABLE 1, read-out: HCMV EC50), 55000 nM; in the data set on HIV-1 [8] (HIV replication in HT4-6C cells, plaque reduction, average of 4 experiments, Table 6, read-out: EC50), 8.2 µM; in the data set with HIV-1 [8] (HIV-1 LAI infected HT4-6C cells, 3 days, preliminary experiments, Table 5, read-out: EC50, μM, in HIV-1 plaque reduction assay) it was 16 µM. In data set [2], the 50% cytotoxic concentration (CC50) at 5 days is more than 1000 µM. Moreover, the cytotoxic concentration (CC50) in the data set with HT4-6C Cells was more than 1 mM.
In the case of `CCCCCCCCCCCCCCCCOP1(=O)CO[C@@H](Cn2ccc(N)nc2=O)CO1` (stereo partly drawn) [Hexadecyl-cCDV, hexadecyl cyclic cidofovir], the EC50 in data set [1] (setting [9]) stood at 100 nM. Further, in data set [6], the CC50 is 6.5 µM.
